Consider 3 compounds from patent EP4603099A1 (priority 2022, dated 2024).

Series [1] has as its system IAV (H1N1, seasonal isolated strain in 2019). The class given is cell-based, influenza A virus. The following applies: human lung explant, 10 µM TFMT; compared with untreated sample.
Series [2] concerns IAV-GFP SC35M strain. Format: cell-based, influenza A virus.
The test system of series [3] is IBV. Kind of series: qRT-PCR analysis of IBV RNA in infected A549 cells. Format: cell-based, influenza B virus. The protocol:
(§1) The cells were recovered with TRIzol (Invitrogen, 15596), and RNA was extracted according to the manufacturer's protocol. The cDNA was purified using a High-Capacity cDNA Reverse Transcription Kit (Applied Biosystems, 43688). Quantitative reverse transcription polymerase chain reaction (qRT-PCR) was carried out using a Fast SYBR Green Master Mix (Applied Biosystems, 4385614) or a TaqMan Fast Advanced Master Mix (Applied Biosystems, 4444558).
(In general: Quantitative PCR measures a nucleic acid by following its amplification.)

Series [4] in a line: in vivo toxicity in mouse, nasal cavity inoculation, change in body weight. Conditions: 2 mg/kg intranasally on day 0 and day 1, C57BL/6 mice. As to the method:
Next, the in vivo toxicity in the mouse was evaluated by carrying out nasal cavity inoculation once a day for two days.
TFMT or tubercidin at 2 mg/kg was intranasally administered to C57BL/6 mice on the 0th day of infection and the 1st day of infection (indicated by arrows in the figure).

Series [5] has as its system A549 cells.
Series [6] concerns the target T1, human Mtr1 (Homo sapiens, UniProt Q8N1G2).
T1 sequence (Q8N1G2 1-835): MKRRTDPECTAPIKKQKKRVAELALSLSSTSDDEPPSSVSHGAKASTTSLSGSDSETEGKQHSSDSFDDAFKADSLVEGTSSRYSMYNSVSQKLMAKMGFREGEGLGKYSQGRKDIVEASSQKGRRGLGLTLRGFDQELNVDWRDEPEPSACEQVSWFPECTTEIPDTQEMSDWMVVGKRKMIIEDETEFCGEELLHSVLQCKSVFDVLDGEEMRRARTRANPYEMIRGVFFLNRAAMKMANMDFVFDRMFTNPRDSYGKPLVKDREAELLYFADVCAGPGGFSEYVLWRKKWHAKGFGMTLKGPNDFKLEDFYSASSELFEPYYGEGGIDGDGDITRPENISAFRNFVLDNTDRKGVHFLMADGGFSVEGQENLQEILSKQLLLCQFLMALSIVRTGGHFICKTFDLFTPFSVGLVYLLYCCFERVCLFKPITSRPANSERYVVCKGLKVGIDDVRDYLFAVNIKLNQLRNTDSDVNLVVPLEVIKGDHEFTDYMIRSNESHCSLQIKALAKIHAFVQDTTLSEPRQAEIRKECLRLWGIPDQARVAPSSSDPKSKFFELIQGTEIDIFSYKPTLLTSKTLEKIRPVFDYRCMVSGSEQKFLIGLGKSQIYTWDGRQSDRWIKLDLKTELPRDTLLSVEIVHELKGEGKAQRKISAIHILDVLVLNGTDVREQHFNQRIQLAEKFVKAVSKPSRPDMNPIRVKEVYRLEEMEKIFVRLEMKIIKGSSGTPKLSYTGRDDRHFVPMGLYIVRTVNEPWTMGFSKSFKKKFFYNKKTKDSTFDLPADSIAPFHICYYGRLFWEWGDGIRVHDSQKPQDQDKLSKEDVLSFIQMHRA
The experiment in a line: thermal shift assay using SYPRO Orange. The following applies: ribavirin as control.

Series [7] deals with T1, human Mtr1. Kind of series: methyltransferase (MTase) activity assay. The following applies: 0.8 µM human MTr1, cap0 RNA, SAM[3H], 37°C overnight.
Description: The synthesized RNA, 3'-O-Me-m7GpppGpG (pN27), was used in a methyltransferase activity assay of human MT r1.
The reaction sample was purified using a mini quick oligo column (Roche, 11814397001), and free SAM [3H] was removed. The purified sample was diluted with ULTIMA GOLD (PerkinElmer, 6013329), and the methyltransferase activity was measured in terms of the number of disintegrations per minute (DPM) by using a scintillation counter LS6500 (Beckman Coulter).
In series [8] the test system is IAV PR8 strain. Format: cell-based, influenza A virus.
For series [9], the system named is HAZV. Format: cell-based, Hazara virus.
The test system of series [10] is STBV. The experiment in a line: qRT-PCR analysis of STBV RNA in infected A549 cells. The class given is cell-based, Soft tick bunya virus. The following applies: A549, m.o.i. 0.1, 24 hours. As to the method: as §1
Series [11] has as its system HAZV. The class given is cell-based, Hazara virus. This is another data set of the same source.
The subject of series [12] is IAV WSN. Kind of series: mouse in vivo IAV infection model, qRT-PCR of IAV RNA in lung tissue. Set-up: species or system C57BL/6 mice. Conditions: 2 mg/kg intranasally on day 0 and day 1; 2 days after infection, 5 × 10^3 PFU. As to the method:
As shown in the figure, the IAV WSN and TFMT were introduced into the nasal cavity. TFMT was added on the 0th day of the IAV WSN infection and the 1st day of the IAV WSN infection.
qRT-PCR analysis (5 × 10^3 PFU) of IAV RNA in the lung tissue of the IAV-infected C57BL/6 mice on the 2nd day was carried out. TFMT of 2 mg/kg was intranasally administered on the 0th day of infection and the 1st day of infection. […] (*p < 0.05, **p < 0.01).

The subject of series [13] is IFN-β RNA. The experiment in a line: qRT-PCR analysis of IFN-β RNA and other host RNAs in A549 cells. Format: cell-based, human. Conditions: A549 infected or not with IAV PR8 (m.o.i. 1), 10 µM TFMT. The protocol: as §1
1 was analyzed in the presence or absence of 10 µM TFMT.
Each RNA indicated in the figure at the indicated moment at the m.o.i. of 1, in A549 cells which had been infected or not infected with the IAV PR8 strain in the presence or absence of 10 µM TFMT, was analyzed.

Series [14] has as its system IAV PR8 strain.
Where [15] appears, read: NHBE cells, m.o.i. 1, 24 hours, […].

Entries after “also recorded” stand apart in the source; their conditions may differ.

On to `Nc1ncnc2c1c(C(F)(F)F)cn2[C@@H]1O[C@H](CO)[C@@H](O)[C@H]1O` [TFMT, trifluoromethyl tubercidin], for which the “virus titer, second figure printed in the same sentence ('and was 100 to 1,000')” value in series [1] is 100 to 1,000.
Consider `Nc1ncnc2c1ccn2[C@@H]1O[C@H](CO)[C@@H](O)[C@H]1O` [tubercidin], for which, in [2], the “anti-IAV activity, rank among 12 commercially available compounds (GFP level)” value is “identified as the most effective compound” and the “inhibition of IAV-GFP (GFP level), dose dependence” value is given as “the inhibition depended on the dose at 0.1 to 100 µM”. In addition, the “effect on IBV infection” value in series [3] (A549, compound added 3 hours before infection (FIG. 19(d))) was “had an effect on the IBV infectious disease”. Also, the “change in body weight” value in series [4] is on record as “caused a significant body weight loss”. In addition, the “toxicity (WST-8)” value in [5] (A549 infected with IAV-GFP, 19 hours, tubercidin 0.1 to 100 µM) is recorded as “the toxicity was slight”. Also, the “binding to recombinant MTr1 (thermal shift)” value in [6] is listed as “directly binds to the recombinant MTr1”. The “MTase activity of the recombinant MTr1 protein” value in [7] was “inhibits the MTase activity of the recombinant MTr1 protein in a dosage-dependent manner”.
With trifluoromethyl tubercidin [TFMT], in [2], the “IAV replication (GFP level), time of addition” value is “significantly inhibited IAV replication; also recorded: the effect was reduced or could not be confirmed” and the “inhibition at the lowest concentration, secondary screening step 3” value is recorded as “identified as the most effective compound”. For the same compound, the “synergistic effect with amantadine (GFP relative fluorescence units, combination index)” value in [2] (combination of TFMT and amantadine, […]) is reported as “exhibited a synergistic effect”. Further, the “synergistic effect with BXM (GFP relative fluorescence units, combination index)” value in series [2] (combined treatment of TFMT and BXM, […]) is “a strong synergistic effect was observed”. For the same compound, in [2] (read-out: IC50 for IAV infection), the IC50 amounted to 300 nM. The “antiviral activity against IAV (virus RNA, qRT-PCR)” value in series [8] (A549, m.o.i. 1, 24 hours) is reported as “exhibits an antiviral activity”. Besides, the “dependence of the effect on IAV replication on innate immune factors (IAV RNA segment 7)” value in series [8] (A549, m.o.i. 1, 24 hours (FIG. 29)) is “independent of the IFIT1-dependent isolation of RNA or RIG-I/MDA5 signaling”. Besides, the “antiviral activity against IBV (virus RNA, qRT-PCR)” value in [3] (A549, m.o.i. 1, 24 hours) is reported as “exhibits an antiviral activity”. Further, in series [9], the “antiviral activity against HAZV (virus RNA, qRT-PCR)” value is “does not exhibit an antiviral activity”. For the same compound, the “antiviral activity against STBV (virus RNA, qRT-PCR)” value in [10] was “does not exhibit an antiviral activity”. Also, the “HAZV replication (HAZV RNA, qRT-PCR)” value in series [11] is recorded as “did not inhibit HAZV replication”. Moreover, the “change in body weight” value in series [4] was “does not cause body weight loss or cell cytotoxicity”. Further, in series [12], the “IAV NP level in the mouse lung (IAV RNA segment 5, qRT-PCR)” value was “significantly reduced” and the “PB2 mRNA level in the mouse lung (IAV RNA segment 1, qRT-PCR)” value is “significantly reduced”. In addition, the “induction of IFN-β or antiviral ISG (qRT-PCR)” value in series [13] was “did not induce IFN-β or antiviral ISG”. Moreover, in series [5], the “cell cytotoxicity of combined treatment (WST-8)” value is listed as “without cell cytotoxicity”. The “in vitro toxicity (WST-8 cell survival rate assay)” value in [5] (A549, within the effective concentration range) is “no significant in vitro toxicity was confirmed within the effective concentration range”. Further, in series [14], the “cell cytotoxicity in NHBE cells (histological analysis)” value is listed as “without cell cytotoxicity”. Besides, in [14] (setting [15]), the “RNA level of IAV (segment 7, qRT-PCR)” value is “significantly reduced in a dosage-dependent manner” and the “protein level of IAV (Western blot)” value is recorded as “significantly reduced in a dosage-dependent manner”. The “IAV NP level (immunostaining)” value in [14] (NHBE cells, m.o.i. 2, 24 hours, 10 µM TFMT) was “significantly decreased”. The “MTase activity of the recombinant MTr1 protein” value in series [7] was “inhibited”.

By IC50 is commonly meant the concentration that inhibits the measured activity by half.
